Among the data in PubChem BioAssay (NCI) are GI50 and TGI values, retold here.

The term GI50 denotes the concentration at which growth is held to half of that of the control. In general, TGI refers to the concentration at which net growth stops. A low value points to greater sensitivity of the cells.

What all share (assay): DTP human tumour cell line panel, 48 h
In test [1] the test system is OVCAR-8 ovarian.
The test system of test [2] is SF-268 CNS.
Test [3] concerns LOX IMVI melanoma.
The test system of test [4] is M14 melanoma.
Test [5] deals with DU-145 prostate.
Test [6] deals with A498 renal.
The test system of test [7] is NCI/ADR-RES ovarian.
Test [8] deals with UO-31 renal.
The test system of test [9] is SK-OV-3 ovarian.
Test [10] has as its system COLO 205 colon.

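Five concentrations, 48 hours, 96-well plates. GI50 is the concentration that inhibits growth by half. TGI is the concentration that stops growth completely.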

Regarding `Cc1ccc(-c2nc3nc(-c4ccc(Cl)cc4)nc(N4CCCNCC4)c3o2)cc1`, the GI50 was 2.15 µM in [1]; 1.92 µM in test [2]; 1.63 µM in test [3]; 1.75 µM in test [4]; 1.95 µM in [5]; 1.88 µM in [6]. In addition, the GI50 in test [7] is 2.02 µM; in [8] it was 1.3 µM; in [9], 1.75 µM; in test [10] it was 2.08 µM. In addition, the TGI in test [1] was found to be 4.77 µM; in [2], 3.97 µM; in test [3] it was 3.15 µM; in [4] it was 3.34 µM; in test [5], 3.59 µM; in test [6], 3.56 µM. Moreover, the TGI in [7] was found to be 3.95 µM; in test [8], 2.62 µM; in test [9] it was 3.29 µM; in test [10] it was 4.26 µM.

Take `CN(C)c1ccc2[nH]c(O)c(C=Nc3ccc(S(N)(=O)=O)cc3)c2c1`: the GI50 in [1], in test [2], in test [3], in [4], in test [5] and in [6] was > 25 µM throughout. Also, the GI50 is > 25 µM in test [7], > 25 µM in test [8], > 25 µM in test [9] and 15.6 µM in test [10]. Moreover, the TGI in test [1], in test [2], in test [3], in test [4], in test [5] and in test [6] was > 25 µM in each case. In addition, the TGI in [7], in [8], in [9] and in test [10] was > 25 µM in each case.

On to `Cc1cc(S(=O)(=O)/N=C(\N)n2nc(C)c(C)c2C)c(SCc2ccccc2)cc1Cl`, for which the GI50 in test [1], in [2], in test [3], in test [4], in test [5] and in test [6] was > 100 µM each time. Besides, the GI50 in test [7] is 9.22 µM; in test [8], 4.57 µM; in test [9], > 100 µM; in test [10], 74 µM. For the same molecule, the TGI in test [1], in test [2], in [3], in [4], in [5] and in test [6] was > 100 µM each time. Further, the TGI in [7], in test [8], in test [9] and in test [10] was > 100 µM in each case.

For the molecule `O=c1[nH]cnc2c1nnn2[C@@H]1O[C@H](CO)[C@@H](O)[C@H]1O`, the GI50 in [1] was 0.843 µM; in test [2], 28.9 µM; in test [3], 2.14 µM; in [4], 3.54 µM; in test [5], 1.72 µM; in [6], 2.51 µM. For the same molecule, the GI50 in test [7] is 2.27 µM; in [8], 4.46 µM; in test [9], 0.868 µM; in test [10] it was 3.16 µM. For the same molecule, the TGI in test [1] was > 100 µM; in test [2], > 100 µM; in [3] it was > 100 µM; in [4] it was 41.9 µM; in test [5], > 100 µM; in test [6], 57.4 µM. The TGI in test [7] was > 100 µM; in test [8], > 100 µM; in [9] it was > 100 µM; in test [10] it was 20.6 µM.

Take `CC1(C)CC2=NOS3=C2C(=NO3)C1c1ccccn1` (stereo not given): the TGI in test [1], in test [2], in test [3], in test [4], in [5] and in test [6] was > 100 µM in each case. Further, the TGI was > 100 µM in test [7], > 100 µM in [8], > 100 µM in [9] and 80.5 µM in test [10].

With `Cc1cc(Nc2nc(N3CCOCC3)nc3ccccc23)n[nH]1`, the GI50 in test [1] was 21.1 µM; in [2], 6.21 µM; in test [3], 4.35 µM; in test [4] it was 7.14 µM; in test [5] it was 13.3 µM; in [6], 1.01 µM. Further, the GI50 in test [7] was 18.2 µM; in [8], 1.38 µM; in test [9], 3.69 µM; in test [10], 3.09 µM. Further, the TGI is > 100 µM in [1]; 35.2 µM in test [2]; 21.2 µM in test [3]; > 100 µM in test [4]; > 100 µM in test [5]; 5.33 µM in [6]. Moreover, the TGI was > 100 µM in test [7], 11.2 µM in [8], 40.9 µM in test [9] and 11.9 µM in test [10].

Turning to `O=C(CCc1ccc(O)c(O)c1)c1ccc(O)c(O)c1O`, the total growth inhibition concentration (TGI) in test [1] is 74.2 µM; in [2] it was 60.6 µM; in test [3] it was > 100 µM; in test [4], 41.7 µM; in test [5], 37.2 µM; in test [6] it was > 100 µM. In addition, the TGI in test [7] is > 100 µM; in test [8], > 100 µM; in test [9], > 100 µM; in test [10], 34.3 µM.

Regarding `COc1ccc2c(c1)C(=O)c1c-2c(N2CCN(C(=O)CN(C)C)CC2)nc2ccccc12`, the GI50 in test [1] was 24.7 µM; in test [2], 17.3 µM; in test [3], 12.3 µM; in test [4] it was 15.6 µM; in test [5], 14.8 µM; in test [6], 15.4 µM. For the same molecule, the GI50 in [7] was 19.7 µM; in test [8], 10.4 µM; in test [9], 19.6 µM; in test [10], 13.3 µM. Further, the TGI is > 100 µM in [1]; 44.3 µM in test [2]; 33.6 µM in test [3]; 31.5 µM in test [4]; 35.2 µM in test [5]; 31.8 µM in test [6]. In addition, the TGI in test [7] was 57.1 µM; in test [8] it was 26 µM; in test [9], > 100 µM; in test [10], 28.1 µM.

`Nc1c(C(=O)Nc2cccc3ccccc23)sc2nc3c(cc12)CCCCC3`: the GI50 in [1] was 1.68 µM; in test [2] it was 2.82 µM; in [3], 0.909 µM; in [4], 0.339 µM; in test [5], 1.73 µM; in test [6] it was 0.646 µM. For the same molecule, the GI50 in [7] was 0.402 µM; in test [8] it was 1.91 µM; in test [9], 1.47 µM; in test [10], 1.46 µM. For the same molecule, the TGI was > 50 µM in test [1]; > 50 µM in [2]; > 50 µM in [3]; > 50 µM in [4]; > 50 µM in test [5]; 25.8 µM in test [6]. Also, the TGI in [7] is > 50 µM; in [8], > 50 µM; in [9] it was > 50 µM; in test [10] it was 4.99 µM.

For `Cc1c(N(C(=O)c2cc(-c3cc(Cl)ccc3C(=O)N3Cc4ccccc4C[C@H]3CN3CCOCC3)n(C)c2C)c2ccc(O)cc2)cc(C#N)n1C`, the GI50 in test [1] is 55.8 µM; in test [2], 20.5 µM; in test [3], 14.6 µM; in [4], 21.8 µM; in [5], 32.5 µM; in test [6] it was 23.2 µM. Moreover, the GI50 is 50.6 µM in test [7], 15.6 µM in test [8], 17.9 µM in test [9] and 17.1 µM in test [10]. Also, the TGI was > 100 µM in [1]; > 100 µM in test [2]; > 100 µM in test [3]; > 100 µM in [4]; > 100 µM in test [5]; 61.6 µM in [6]. For the same molecule, the TGI in [7] is > 100 µM; in test [8] it was > 100 µM; in test [9] it was > 100 µM; in test [10], 35.2 µM.

On to `C=C1C(=O)O[C@H]2[C@H]1CC/C(COC(=O)NCCc1c[nH]c3ccccc13)=C\CC[C@@]1(C)O[C@@H]21`, for which the GI50 in test [1] was 1.86 µM; in [2], 2.94 µM; in [3], 0.788 µM; in test [4], 1.44 µM; in test [5], 1.19 µM; in test [6], 8.19 µM. Moreover, the GI50 was 2.5 µM in test [7], 1.43 µM in test [8], 12.5 µM in test [9] and 1.36 µM in test [10]. Moreover, the TGI was determined as 5.21 µM in [1]; 13.5 µM in test [2]; 2.23 µM in test [3]; 3.65 µM in test [4]; 2.68 µM in test [5]; 21.2 µM in test [6]. Also, the TGI in test [7] was found to be 11.8 µM; in test [8] it was 2.73 µM; in test [9], 25.1 µM; in [10] it was 3.09 µM.

For `O=C1CN2CCC1C/C2=C\c1ccnc2c(Cl)cccc12` (stereo not given), the GI50 is 61.6 µM in test [1]; > 100 µM in test [2]; 52.2 µM in [3]; > 100 µM in test [4]; > 100 µM in test [5]; 69.8 µM in test [6]. Also, the GI50 in test [7] is 39.2 µM; in test [8] it was 17.7 µM; in test [9], > 100 µM; in [10], > 100 µM. The TGI in test [1], in test [2], in [3], in [4], in test [5] and in test [6] was > 100 µM in each case. Moreover, the TGI in test [7], in [8], in test [9] and in test [10] was > 100 µM in each case.

`COc1cc(N)ccc1Nc1c2ccccc2nc2ccccc12`: the GI50 in [1] was 10.2 µM; in test [2] it was 14.2 µM; in test [3], 5.27 µM; in test [4], 16.5 µM; in test [5], 3.79 µM; in test [6] it was 6.28 µM. Besides, the GI50 in test [7] was 15.4 µM; in test [8], 5.33 µM; in test [9] it was 12.5 µM; in test [10], 5.55 µM. Further, the TGI in test [1] was determined as 36 µM; in [2], 35.3 µM; in [3], 35.4 µM; in [4] it was 36.2 µM; in [5], 14.8 µM; in [6] it was 22.4 µM. Also, the total growth inhibition concentration (TGI) in test [7] worked out at 45.3 µM; in [8], 22.8 µM; in test [9] it was 29.4 µM; in test [10], 18.4 µM.

`COc1cc(/C=C/C(=O)CC(=O)/C=C/c2ccc(OC(=O)CCNC34CC5CC(CC(C5)C3)C4)c(OC)c2)ccc1OC(=O)CCNC12CC3CC(CC(C3)C1)C2`: the GI50 is 3.71 µM in test [1]; 3.01 µM in test [2]; 1.96 µM in test [3]; 3.48 µM in test [4]; 1.4 µM in [5]; 4.61 µM in [6]. In addition, the GI50 is 8 µM in [7], 3.45 µM in test [8], 6.75 µM in test [9] and 4.71 µM in [10]. Further, the TGI in test [1] amounted to 13.4 µM; in test [2], 13.2 µM; in test [3], 4.14 µM; in test [4] it was 14.1 µM; in test [5], 3.13 µM; in test [6], 17.5 µM. The TGI was determined as 49.9 µM in test [7], 14.8 µM in test [8], 27.2 µM in test [9] and 20.8 µM in [10].

For the molecule `C/C(=C\c1ccn(-c2ccc(N)cc2C(F)(F)F)n1)[C@@H]1C[C@@H]2O[C@]2(C)CCC[C@H](C)[C@H](O)[C@@H](C)C(=O)C(C)(C)[C@@H](O)CC(=O)O1`, the GI50 was 0.506 µM in test [1]; 0.481 µM in [2]; 0.476 µM in [3]; 0.242 µM in test [4]; 0.401 µM in test [5]; 0.303 µM in [6]. Moreover, the GI50 in [7] was 4.38 µM; in [8], 0.954 µM; in [9], 0.42 µM; in test [10], 0.25 µM. Moreover, the TGI is > 11.1 µM in test [1]; > 11.1 µM in test [2]; > 11.1 µM in [3]; 1.56 µM in test [4]; 2.87 µM in [5]; 2.27 µM in [6]. In addition, the TGI was > 11.1 µM in [7], > 11.1 µM in [8], > 11.1 µM in test [9] and 0.773 µM in test [10].
